The assay concerns SMCs in relation to ECs. Kind of assay: activity ratio: efficiency towards SMCs / efficiency towards ECs. It counts as cell-based. The following applies: activity ratio class; order in Table 1 follows the calculated values. On the procedure:
For determination of vascular SMC proliferation, 0.5×10^4 viable rat aortic SMCs per well were seeded in SMC growth medium (DMEM/F12 medium with 20% serum, 30 μg/mL Gentamicin and 15 ng/mL Amphotericin) in 96-well plates. 24 h later, the medium was removed, the cells were washed once with SMC starvation medium (DMEM/F12 medium with 0.1% serum, 0.2% BSA, 30 μg/mL Gentamicin and 15 ng/mL Amphotericin) and incubated in starvation medium for further 24 h.
The quiescent cells were then pretreated for 30 min with the test compounds and induced to proliferate with 20 ng/mL platelet-derived growth factor (PDGF). Unstimulated cells were utilized for normalization and estimation of the basal level of proliferation. The final concentration of the solvent vehicle, dimethyl sulfoxide (DMSO), was the same (0.1%) in all wells. 48 h later, the SMC proliferation was quantified by resazurin dye conversion for 2 h as previously described (H. Joa et al., J. Nat. Prod. 74(6), 1513-6 (2011)).
For determination of endothelial cell proliferation, 0.5×10^4 HUVECtert immortalized human umbilical vein endothelial cells (H. B. Schiller et al., Mol. Biol. Cell. 20(3), 745-756 (2009)) were seeded in 96-well plates for 24 h in HUVEC Complete Medium (EBM™ growth medium supplemented with 10% fetal bovine serum, EBM™ SingleQuots (Lonza, Basel, Switzerland), 100 U/mL benzylpenicillin, 100 μg/mL streptomycin, and 1% amphotericin). Afterwards, the medium was exchanged with fresh HUVEC Complete Medium and cells were treated with the indicated compounds for 48 h. After the end of the incubation period, the medium was removed, the cells were washed once with 200 μL/well PBS, and treated with 150 μL HUVEC Complete Medium containing 10 μg/mL resazurin. 2 h later, the fluorescence was measured at a wavelength of 580 nm, with excitation wavelength 535 nm in a 96-well plate reader (Tecan GENios Pro; Tecan Group Ltd., Mannedorf, Switzerland).
In every case, the percentage of viable cells was subtracted from 1, in order to obtain a measure of efficiency of the test compounds towards each particular type of cells, and subsequently, the efficiency quotient towards SMCs and ECs was calculated and taken as the “activity ratio” and thus as a measure of selective efficiency of each test compound towards SMCs in relation to ECs. For example, the synthetic Leoligin with the bio ID 2418 prepared in Comparative Example 27 as compound 10-22 gave the following results:
Due to the usual fluctuations in determining surviving cells, which amount to approximately ±10%, and due to the relatively strong resulting fluctuations in calculating quotients—especially if the inhibitory effect of said novel compounds towards ECs is very poor—said threshold value of 1.50 for the activity ratio, as already mentioned above, was introduced.
In the following, a table listing every compound prepared in examples and comparative Examples for which an activity ratio (a.r.) of >1.0 was determined, is given.
As to `COc1ccc(C[C@H]2CO[C@H](c3ccc(F)cc3)[C@H]2COC(=O)C2CCC2)cc1OC` [Example 33, ((2S,3R,4R)-4-(3,4-dimethoxybenzyl)-2-(4-fluorophenyl)tetrahydrofuran-3-yl)methyl cyclobutanecarboxylate], the a.r. code result is listed as “AA (a.r. ≧ 2.0)”.
For `C/C=C(/C)C(=O)OC[C@H]1[C@@H](Cc2ccc(C(F)(F)F)cc2)CO[C@@H]1c1cc(OC)c(OC)c(OC)c1` [Comparative Example 32, (Z)-((2S,3R,4R)-4-(4-(trifluoromethyl)benzyl)-2-(3,4,5-trimethoxyphenyl)-tetrahydrofuran-3-yl)methyl 2-methylbut-2-enoate] the value was “V (1.0 < a.r. < 1.50)”; for `COc1cc([C@H]2OC[C@H](Cc3ccc(-c4ccccc4)cc3)[C@@H]2CO)cc(OC)c1OC` [Example 9, ((2S,3R,4R)-4-([1,1′-biphenyl]-4-ylmethyl)-2-(3,4,5-trimethoxyphenyl)-tetrahydrofuran-3-yl)methanol], “AA (a.r. ≧ 2.0)”.
For `COc1ccc(C[C@H]2CO[C@H](c3ccc(F)cc3)[C@H]2COC(=O)CC(C)C)cc1OC` [Example 32, ((2S,3R,4R)-4-(3,4-dimethoxybenzyl)-2-(4-fluorophenyl)tetrahydrofuran-3-yl)-methyl 3-methylbutanoate] the value was “AAA (a.r. ≧ 5.0)”.
For `COc1ccc(C[C@H]2CO[C@H](c3ccc(OC)c(OC)c3)[C@H]2COC(=O)C(C)(C)C)cc1OC` [Comparative Example 45, ((2S,3R,4R)-4-(3,4-dimethoxybenzyl)-2-(3,4-dimethoxyphenyl)tetrahydrofuran-3-yl)methyl pivalate] the value was “V (1.0 < a.r. < 1.50)”.
On to `C/C=C(/C)C(=O)OC[C@H]1[C@@H](Cc2ccc(C(C)=O)cc2)CO[C@@H]1c1cc(OC)c(OC)c(OC)c1` [Example 21, (Z)-((2S,3R,4R)-4-(4-acetylbenzyl)-2-(3,4,5-trimethoxyphenyl)tetrahydrofuran-3-yl)methyl 2-methylbut-2-enoate], for which the a.r. code result is “AA (a.r. ≧ 2.0)”.
For `C/C=C/C(=O)OC[C@H]1[C@@H](Cc2ccc(OC)c(OC)c2)CO[C@@H]1c1ccc(OC)c(OC)c1` [Example 23, (E)-((2S,3R,4R)-4-(3,4-dimethoxybenzyl)-2-(3,4-dimethoxyphenyl)tetrahydro-furan-3-yl)methyl but-2-enoate] the value was “AA (a.r. ≧ 2.0)”; for `C/C=C(/C)C(=O)OC[C@H]1[C@@H](Cc2ccc(C)cc2)CO[C@@H]1c1cc(OC)c(OC)c(OC)c1` [Comparative Example 34, (Z)-((2S,3R,4R)-4-(4-methylbenzyl)-2-(3,4,5-trimethoxyphenyl)tetrahydrofuran-3-yl)methyl 2-methylbut-2-enoate], “V (1.0 < a.r. < 1.50)”.
As to `COc1ccc([C@H]2OC[C@H](Cc3ccc(C(F)(F)F)cc3)[C@@H]2CO)cc1OC` [Example 4, ((2S,3R,4R)-2-(3,4-dimethoxyphenyl)-4-(4-(trifluoromethyl)benzyl)tetrahydro-furan-3-yl)methanol], the a.r. code entry is on record as “A (a.r. ≧ 1.50)”.
For `COc1ccc(C[C@H]2CO[C@H](c3cc(OC)c(OC)c(OC)c3)[C@H]2COC(=O)C2=CCCCC2)cc1OC` [Comparative Example 46, ((2S,3R,4R)-4-(3,4-dimethoxybenzyl)-2-(3,4,5-trimethoxyphenyl)tetrahydro-furan-3-yl)methyl cyclohex-1-enecarboxylate] the value was “V (1.0 < a.r. < 1.50)”; for `C/C=C(/C)C(=O)OC[C@H]1[C@@H](Cc2ccc(C(C)(C)C)cc2)CO[C@@H]1c1cc(OC)c(OC)c(OC)c1` [Example 20, (Z)-((2S,3R,4R)-4-(4-(tert-butyl)benzyl)-2-(3,4,5-trimethoxyphenyl)tetrahydro-furan-3-yl)methyl 2-methylbut-2-enoate], “AA (a.r. ≧ 2.0)”; for `COc1cc([C@H]2OC[C@H](Cc3ccc(C(F)(F)F)cc3)[C@@H]2CO)cc(OC)c1OC` [Example 8, ((2S,3R,4R)-4-(4-(trifluoromethyl)benzyl)-2-(3,4,5-trimethoxyphenyl)tetrahydro-furan-3-yl)methanol], “AAA (a.r. ≧ 5.0)”.
For `C/C=C(/C)C(=O)OC[C@H]1[C@@H](Cc2ccccn2)CO[C@@H]1c1ccc(OC)c(OC)c1` [Example 12, (Z)-((2S,3R,4R)-2-(3,4-dimethoxyphenyl)-4-(pyridin-2-ylmethyl)tetrahydro-furan-3-yl)methyl 2-methylbut-2-enoate] the value was “AAA (a.r. ≧ 5.0)”; for `CCCCc1ccc(C[C@H]2CO[C@H](c3ccc(OC)c(OC)c3)[C@H]2CO)cc1` [Example 5, ((2S,3R,4R)-4-(4-butylbenzyl)-2-(3,4-dimethoxyphenyl)tetrahydrofuran-3-yl)-methanol], “AA (a.r. ≧ 2.0)”.
For `C/C=C(/C)C(=O)OC[C@H]1[C@@H](Cc2ccc(OC)cc2)CO[C@@H]1c1cc(OC)c(OC)c(OC)c1` [Comparative Example 33, (Z)-((2S,3R,4R)-4-(4-methoxybenzyl)-2-(3,4,5-trimethoxyphenyl)tetrahydro-furan-3-yl)methyl 2-methylbut-2-enoate] the value was “V (1.0 < a.r. < 1.50)”; for `C/C=C(/C)C(=O)OC[C@H]1[C@@H](Cc2ccc(OC)cc2)CO[C@@H]1c1ccccc1` [Comparative Example 29, (Z)-((2S,3R,4R)-4-(4-methoxybenzyl)-2-phenyltetrahydrofuran-3-yl)methyl 2-methylbut-2-enoate], “V (1.0 < a.r. < 1.50)”; for `CCCC(=O)OC[C@H]1[C@@H](Cc2ccc(OC)c(OC)c2)CO[C@@H]1c1cc(OC)c(OC)c(OC)c1` [Example 37, ((2S,3R,4R)-4-(3,4-dimethoxybenzyl)-2-(3,4,5-trimethoxyphenyl)tetrahydro-furan-3-yl)methyl butyrate], “AAA (a.r. ≧ 5.0)”.
Take `COc1ccc([C@H]2OC[C@H](Cc3ccc(C)cc3)[C@@H]2CO)cc1OC` [Example 2, ((2S,3R,4R)-2-(3,4-dimethoxyphenyl)-4-(4-methylbenzyl)tetrahydrofuran-3-yl)-methanol]: the a.r. code result is given as “AAA (a.r. ≧ 5.0)”.
For `COc1ccc(C[C@H]2CO[C@H](c3ccccc3)[C@H]2COC(=O)C2CCCCC2)cc1OC` [Example 28, ((2S,3R,4R)-4-(3,4-dimethoxybenzyl)-2-phenyltetrahydrofuran-3-yl)methyl cyclohexanecarboxylate] the value was “A (a.r. ≧ 1.50)”; for `C/C=C(/C)C(=O)OC[C@H]1[C@@H](Cc2ccc(F)cc2)CO[C@@H]1c1ccc(F)cc1` [Example 17, (Z)-((2S,3R,4R)-4-(4-fluorobenzyl)-2-(4-fluorophenyl)tetrahydrofuran-3-yl)-methyl 2-methylbut-2-enoate], “AAA (a.r. ≧ 5.0)”; for `COc1ccc(C[C@H]2CO[C@H](c3cc(OC)c(OC)c(OC)c3)[C@H]2COC(=O)c2ccccc2)cc1OC` [Example 36, ((2S,3R,4R)-4-(3,4-dimethoxybenzyl)-2-(3,4,5-trimethoxyphenyl)tetrahydro-furan-3-yl)methyl benzoate], “A (a.r. ≧ 1.50)”.
On to `COc1ccc(C[C@H]2CO[C@H](c3ccc(F)cc3)[C@H]2COC(=O)CC(C)(C)C)cc1OC` [Comparative Example 43, ((2S,3R,4R)-4-(3,4-dimethoxybenzyl)-2-(4-fluorophenyl)tetrahydrofuran-3-yl)-methyl 3,3-dimethylbutanoate], for which the a.r. code entry is recorded as “V (1.0 < a.r. < 1.50)”.

The values are drawn from US20170157301A1, “LEOLIGIN DERIVATIVES AS SMOOTH MUSCLE CELL PROLIFERATION INHIBITORS” (TECHNISCHE UNIVERSITAET WIEN, priority 2014, published 2017).
